Source: patent publication US20060258598A1, “Alpha-keto carbonyl calpain inhibitors” (priority 2003, published 2006)
pEC50, pIC50: −log10 of the molar value.

Assays:
human μ-calpain = target: T1, human μ-calpain (Homo sapiens, UniProt P07384); test: Enzymatic calpain inhibition assay; type: biochemical; conditions: substrate Suc-Leu-Tyr-AMC, read-out: Calp I IC50
T1 construct: purchased Calbiochem
T1 sequence (P07384 1-714): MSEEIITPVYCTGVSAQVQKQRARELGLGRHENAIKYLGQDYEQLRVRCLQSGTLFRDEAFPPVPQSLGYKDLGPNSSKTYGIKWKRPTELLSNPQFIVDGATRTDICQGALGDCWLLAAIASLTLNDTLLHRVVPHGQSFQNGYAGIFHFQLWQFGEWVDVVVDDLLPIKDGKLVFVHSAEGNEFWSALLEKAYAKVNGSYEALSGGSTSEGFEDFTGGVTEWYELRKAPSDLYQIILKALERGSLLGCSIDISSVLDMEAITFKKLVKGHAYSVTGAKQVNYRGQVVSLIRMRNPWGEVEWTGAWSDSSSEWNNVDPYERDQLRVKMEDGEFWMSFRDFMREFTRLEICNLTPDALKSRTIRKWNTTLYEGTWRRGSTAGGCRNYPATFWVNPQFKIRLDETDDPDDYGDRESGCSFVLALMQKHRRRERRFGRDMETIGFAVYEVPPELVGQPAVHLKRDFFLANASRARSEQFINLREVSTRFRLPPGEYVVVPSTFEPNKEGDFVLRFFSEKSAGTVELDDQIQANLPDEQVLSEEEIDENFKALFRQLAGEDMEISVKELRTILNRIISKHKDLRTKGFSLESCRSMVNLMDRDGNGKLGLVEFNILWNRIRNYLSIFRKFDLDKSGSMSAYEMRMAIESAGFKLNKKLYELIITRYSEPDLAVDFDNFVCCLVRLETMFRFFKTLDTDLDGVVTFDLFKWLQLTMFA
T1 sequence (P04632 1-268 partner): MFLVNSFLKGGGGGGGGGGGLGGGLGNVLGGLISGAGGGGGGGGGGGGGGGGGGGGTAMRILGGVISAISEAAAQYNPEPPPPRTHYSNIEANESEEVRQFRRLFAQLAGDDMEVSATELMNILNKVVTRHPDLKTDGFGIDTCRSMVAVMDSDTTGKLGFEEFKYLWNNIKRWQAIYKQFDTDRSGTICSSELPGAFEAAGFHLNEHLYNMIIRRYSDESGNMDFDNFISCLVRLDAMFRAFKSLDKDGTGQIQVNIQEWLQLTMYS
Protocol: The Ki value was also determined in some cases. These criteria were used to measure the inhibitory effect of the compounds (I) on calpain I, calpain II and cathepsin B.
Enzymatic Calpain Inhibition Assay
The inhibitory properties of calpain inhibitors are tested in 100 μl of a buffer containing 100 mM imidazole pH 7.5, 5 mM L-Cystein-HCl, 5 mM CaCl2, 250 μM of the calpain fluorogenic substrate Suc-Leu-Tyr-AMC (Sigma) (Sasaki et al., J. Biol. Chem., 1984, 259, 12489-12949) dissolved in 2.5 μl DMSO and 0.5 μg of human μ-calpain (Calbiochem). The inhibitors dissolved in 1 μl DMSO are added to the reaction buffer. The fluorescence of the cleavage product 7-amino-4-methylcoumarin (AMC) is followed in a SPECTRAmax GEMINI XS (Molecular Device) fluorimeter at λex=360 nm and λem=440 nm at 30° C. during 30 min at intervals of 30 sec in 96-well plates (Greiner). The initial reaction velocity at different inhibitor concentrations is plotted against the inhibitor concentration and the IC50 values determined graphically.

[1] = tested on: cellular calpains in C2C12 myoblasts; test: Calpain inhibition assay in C2C12 myoblasts; type: cell-based; conditions: 2 h incubation, calcium ionophore Br-A-23187, read-out: Calp I IC50 Myoblast
Protocol: Calpain Inhibition Assay in C2C12 Myoblasts
This assay is aimed at monitoring the ability of the substance to inhibit cellular calpains. C2C12 myoblasts are grown in 96-well plates in growth medium (DMEM, 20% foetal calf serum) until they reach confluency. The growth medium is then replaced by fusion medium (DMEM, 5% horse serum). 24 hours later the fusion medium is replaced by fusion medium containing the test substances dissolved in 1 μl DMSO. After 2 hours of incubation at 37° C. the cells are loaded with the calpain fluorogenic substrate Suc-Leu-Tyr-AMC at 400 μM in 50 μl of a reaction buffer containing 135 mM NaCl; 5 mM KCl; 4 mM CaCl2; 1 mM MgCl2; 10 mM Glucose; 10 mM HEPES pH 7.25 for 20 min at room temperature. The calcium influx, necessary to activate the cellular calpains, is evoked by the addition of 50 μl reaction buffer containing 20 μM of the calcium ionophore Br-A-23187 (Molecular Probes). The fluorescence of the cleavage product AMC is measured as described above during 60 min at 37° C. at intervals of 1 min. The IC50 values are determined as described above. Comparison of the IC50 determined in the enzymatic calpain inhibition assay to the IC50 determined in the C2C12 myoblasts calpain inhibiton assay, allows to evaluate the cellular uptake or the membrane permeability of the substance.

[2] = tested on: Primary fibroblasts from donors with Friedreich Ataxia (FRDA); test: BSO assay (cell viability under BSO-induced oxidative stress); type: cell-based, human; conditions: 24 h preincubation, 1 mM BSO; for pEC50: Homo sapiens, Fibroblast
Protocol: Primary fibroblasts were derived from donors with molecular diagnosis for Friedreich Ataxia (FRDA) and control donors with no mitochondrial disease. Cell lines were obtained from Coriell Cell Repositories (Camden, N.J.; catalog numbers GM04078, GM08402 and GM08399 respectively). All cell types were diagnosed on the molecular level for intronic […] triplet repeat length of at least 400-450 repeats using a PCR-based method. Experiments were carried out as described in the literature (M. L. Jauslin et al., Human Mol. Genet., 2002, 11, 3055-3063): Cells were seeded in microtiter plates at a density of 4'000 cells per 100 μl in growth medium consisting of 25% (v/v) M199 EBS and 64% (v/v) MEM EBS without phenol red (Bioconcept, Allschwil, Switzerland) supplemented with 10% (v/v) fetal calf serum (PAA Laboratories, Linz, Austria), 100 U/ml penicillin, 100 μg/ml streptomycin (PAA Laboratories, Linz, Austria), 10 μg/ml insulin (Sigma, Buchs, Switzerland), 10 ng/ml EGF (Sigma, Buchs, Switzerland), 10 ng/ml bFGF (PreproTech, Rocky Hill, N.J.) and 2 mM glutamine (Sigma, Buchs, Switzerland). The cells were incubated in the presence of various test compounds for 24 h before addition of L-buthionine-(S,R)-sulfoximine (BSO) to a final concentration of 1 mM. Cell viability was measured after the first signs of toxicity appeared in the BSO-treated controls (typically after 16 to 48 h). The cells were stained for 60 min at room temperature in PBS with 1.2 μM calcein AM and 4 μM ethidium homodimer (Live/Dead assay, Molecular Probes, Eugene, Oreg.). Fluorescence intensity was measured with a Gemini Spectramax XS spectrofluorimeter (Molecular Devices, Sunnyvale, Calif.) using excitation and emission wavelengths of 485 nm and 525 nm respectively.

CCNC(=O)C(=O)[C@H](Cc1cccs1)NC(=O)[C@@H](NC(=O)CCCCC1CCSS1)C(C)C (stereo partly drawn) [Example 145]
pIC50 (human μ-calpain): 7.00 | pIC50 [1]: 5.22 | pEC50 [2]: 5.82

CCNC(=O)C(=O)[C@H](Cc1cccs1)NC(=O)[C@H](CC(C)C)NC(=O)CCCCC1CCSS1 (stereo partly drawn) [Example 147]
pIC50 (human μ-calpain): 7.40 | pIC50 [1]: 5.60 | pEC50 [2]: 5.82

CCNC(=O)C(=O)[C@@H](NC(=O)[C@@H](NC(=O)CCCCC1CCSS1)C(C)C)c1ccccc1 (stereo partly drawn) [Example 153]
pIC50 (human μ-calpain): 6.40 | pIC50 [1]: 5.70 | pEC50 [2]: 5.60

CCNC(=O)C(=O)[C@H](Cc1ccc(Cl)cc1)NC(=O)[C@@H](NC(=O)CCCCC1SC[C@@H]2NC(=O)N[C@H]12)C(C)C (stereo partly drawn) [Example 159]
pIC50 (human μ-calpain): 7.00 | pIC50 [1]: 5.30 | BSO EC50 [2]: inactive

CCNC(=O)C(=O)[C@H](Cc1ccc(OC)cc1)NC(=O)[C@@H](NC(=O)CCCCC1SC[C@@H]2NC(=O)N[C@H]12)C(C)C (stereo partly drawn) [Example 165]
pIC50 (human μ-calpain): 7.07 | pIC50 [1]: 4.96 | pEC50 [2]: 4.22

CCNC(=O)C(=O)[C@H](Cc1ccc(Cl)cc1)NC(=O)[C@@H](NC(=O)CCNC(=O)CCCCC1CCSS1)C(C)C (stereo partly drawn) [Example 172]
pIC50 (human μ-calpain): 7.40 | pIC50 [1]: 4.52 | pEC50 [2]: 5.52

CCNC(=O)C(=O)[C@H](Cc1ccc(Cl)cc1)NC(=O)[C@@H](NC(=O)CCNC(=O)CCCCC1CCS[S+]1[O-])C(C)C (stereo partly drawn) [Example 173]
pIC50 (human μ-calpain): 6.70 | pIC50 [1]: 4.40 | pEC50 [2]: 4.60

CCNC(=O)C(=O)[C@H](Cc1ccc(Cl)cc1)NC(=O)[C@@H](NC(=O)CCCNC(=O)CCCCC1CCSS1)C(C)C (stereo partly drawn) [Example 174]
pIC50 (human μ-calpain): 7.70 | pIC50 [1]: 5.60 | pEC50 [2]: 5.22

CCNC(=O)C(=O)[C@H](Cc1ccc(Cl)cc1)NC(=O)[C@@H](NC(=O)CCCCNC(=O)CCCCC1CCSS1)C(C)C (stereo partly drawn) [Example 175]
pIC50 (human μ-calpain): 7.00 | pIC50 [1]: 4.70 | pEC50 [2]: < 4.00

CCNC(=O)C(=O)[C@H](Cc1ccc(Cl)cc1)NC(=O)[C@H](CC(C)C)NC(=O)CNC(=O)CCCCC1CCSS1 (stereo partly drawn) [Example 176]
pIC50 (human μ-calpain): 7.40 | pIC50 [1]: 5.60 | pEC50 [2]: 4.70

CCNC(=O)C(=O)[C@H](Cc1ccc(Cl)cc1)NC(=O)[C@H](CC(C)C)NC(=O)CNC(=O)CCCCC1CCS[S+]1[O-] (stereo partly drawn) [Example 177]
pIC50 (human μ-calpain): 8.05 | pIC50 [1]: 5.60 | pEC50 [2]: 5.22

CCNC(=O)C(=O)[C@H](Cc1ccc(Br)cc1)NC(=O)[C@@H](NC(=O)CNC(=O)CCCCC1CCS[S+]1[O-])C(C)C (stereo partly drawn) [Example 184]
pIC50 (human μ-calpain): 7.00 | pIC50 [1]: 5.26 | pEC50 [2]: 5.00

CCNC(=O)C(=O)[C@H](Cc1ccc(Br)cc1)NC(=O)[C@H](CC(C)C)NC(=O)CNC(=O)CCCCC1CCSS1 (stereo partly drawn) [Example 186]
pIC50 (human μ-calpain): 7.40 | pIC50 [1]: 5.82 | pEC50 [2]: 5.30
